Data set [1] has as its system chemotherapy-naïve mCRPC patients. The arrangement: method as in PMID 19608618. As to conditions: cited from earlier work.
In a further data set the test system is patients with mCRPC. It is filed as in vivo.
Data set [2] has as its system AR downstream genes (PSA, TMPRSS2, SLC45A3) in C4-2 cells. As to the kind of experiment: RT-PCR of AR downstream genes. It counts as cell-based. As to conditions: chidamide 0.5 µM. Here is the method:
(§1) FIGURE 5 Chidamide inhibited AR pathway and CRPC progression and in vitro. (A) Effect of chidamide and enzalutamide on cell viability. C4‐2 cells were treated with DHT (10 nM), chidamide (0.5 µM), and/or enzalutamide (20 µM) for 96 h. Cell viability was measured by CCK‐8. […] DHT (10 nM) served as control.
Total cellular RNA was isolated using EZ‐press RNA Purification Kit (EZBioscience, USA) according to the manufacturer's protocol. For first‐strand cDNA synthesis, 5 µg of total RNA was reverse‐transcribed using the PrimeScript RT Master Mix (Perfect Real Time, TaKaRa Bio, Kusatsu, Japan) followed by quantitative PCR (qPCR) with 2 × Taq Master Mix (Vazyme Biotech Co., Ltd, China) according to the manufacturer's instructions. Real‐time PCR analyses were conducted using the Biorad CFX96 system and the appropriate primers to estimate the mRNA expression. The primer sequences were as follows: for PSA, forward 5′‐[…]‐3′ and reverse 5′‐[…]‐3′; for TMPRSS2, forward 5′‐[…]‐3′ and reverse 5′‐[…]‐3′; for SLC45A3, forward 5′‐[…]‐3′ and reverse 5′‐[…]‐3′; for GAPDH, forward 5′‐[…]‐3′ and reverse 5′‐[…]‐3′.

Data set [3] can be described thus: Chidamide pharmacokinetics in patients (compartmental modeling, Phoenix Winnonlin 7.0). It is filed as in vivo. As to conditions: male, human, plasma, mCRPC patients, after first administration; for AUC(0-t): read-out: AUC0–24 h, Mean; for clearance: read-out: CL, Mean (converted); for Vd: read-out: Vss, Mean; for half-life: read-out: t 1/2, Mean (converted). Here is the method:
From patients administered with different doses of chidamide, blood samples were collected in a sodium heparin tube at the time points of 2, 4, 8, 12, and 24 h after the completion of the first administration of chidamide (Day 1) in treatment cycle 1 and cycle 2. PK parameters were estimated from chidamide concentrations measured using […] samples taken at specified time points postdosing, and were analyzed by Phoenix Winnonlin 7.0.

The test system of another data set is C4-2 cells. As to the kind of experiment: Cell viability by CCK-8. As to conditions: DHT 10 nM, chidamide 0.5 µM and/or enzalutamide 20 µM, 96 h. It counts as cell-based. Here is the method:
as §1
C4‐2 cell line was provided by Prof. Yonghong Li (Sun Yat‐sen University Cancer Center) and validated by short tandem repeat (STR). C4‐2 cells were grown in RPMI 1640 containing 10% FBS.

The source of these data is PMC12587161, “Chidamide (a Histone Deacetylase Inhibitor) Plus Abiraterone in Metastatic Castration‐Resistant Prostate Cancer (mCRPC): A Phase Ib Trial” (MedComm, 2025).

Structures are written as SMILES. “Also recorded” adds a separate entry of the source. Where two headings read alike, the source gives them in different places.

Protocol for patients with mCRPC: Chidamide was tested in three dose groups (20 mg, 25 mg, 30 mg). The starting dose was 20 mg per dose, administered twice a week, with a treatment cycle lasting 4 weeks. Dosing occurred on fixed days of each week, with two doses administered on the same day each week for the duration of the 4‐week cycle. Three participants are enrolled in each dosage group. If no DLT occurred during the first treatment cycle, the dose was escalated and three patients were enrolled at the next dose level. However, if one DLT was observed, three additional patients were added at the same dose level for further assessment. If no new DLTs occur, the study continues to the next dose level. If two or more of the six patients at a given dose level developed a DLT, further dose escalation was halted, and the prior dose level was determined to be the MTD. Abiraterone was combined with the second administration of chidamide on Day 4 of the first cycle. The observation for DLT was in the period of first cycle of treatment. […]

Take `C/C=C1\NC(=O)[C@H]2CSSCC/C=C/[C@H](CC(=O)N[C@H](C(C)C)C(=O)N2)OC(=O)[C@H](C(C)C)NC1=O` [romidepsin]: in data set [1], the “Time to progression (TTP)” value is 1.8 months.
As a reminder, the Cmax is the peak of the concentration-time curve. Turning to `Nc1cc(F)ccc1NC(=O)c1ccc(CNC(=O)/C=C/c2cccnc2)cc1` [chidamide, Chidamide], in the data set with patients with mCRPC (all 18 patients), the “Chidamide-related SAEs” value is reported as “No chidamide‐related SAEs were observed”. For the same molecule, the “Dose-limited toxicity (DLT)” value in the data set with patients with mCRPC (dose escalation 20, 25, 30 mg chidamide, first cycle) was “none of the patients experienced a DLT”. Moreover, in data set [2], the “Relative mRNA expression of PSA” value is on record as “significantly downregulated; also recorded: decreased”, the “Relative mRNA expression of SLC45A3” value was “significantly downregulated; also recorded: decreased” and the “Relative mRNA expression of TMPRSS2” value is recorded as “significantly downregulated; also recorded: decreased”. In data set [3] (20 mg (N = 4)), the Cmax was 79.2 ng/mL, the AUC(0-t) was determined as 1330 ng·h/mL, the clearance was 170 mL/min and the Vd was determined as 207 L. For the same molecule, the half-life in data set [3] (20 mg (N = 4)) was 13.9 h. In data set [3] (25 mg (N = 11)), the highest level (Cmax) was 91.2 ng/mL, the AUC(0-t) was 1160 ng·h/mL, the clearance was 260 mL/min and the Vd was 326 L. The half-life in data set [3] (25 mg (N = 11)) was 13.6 h. For the same molecule, in data set [3] (30 mg (N = 3)), the peak concentration (Cmax) stood at 296 ng/mL, the AUC(0-t) was 2860 ng·h/mL, the clearance is 188 mL/min and the Vd stood at 132 L. Also, in data set [3] (30 mg (N = 3)), the half-life is 8.06 h. In addition, the Cell viability result in the data set on C4-2 cells is on record as “effectively inhibits the cell viability”.
